Data from ChEMBL document CHEMBL5260832, “Hepatoprotective natural triterpenoids” (Eur J Med Chem, 2018).

Tests used:
[1] = Hepatotoxicity in D-GaIN induced Wistar rat assessed as change in induction of TAT level for 10 days relative to control; format: toxicity; design: concentration or dose not given beside the values; details: in vivo, 240 h, time 10 day
[2] = system: HepG2; test: Hepatoprotective activity against H2O2-induced cell death in human HepG2 cells assessed as reduction in AST level at 20 uM preincubated for 1 hr followed by H2O2-stimulation and measured after 24 hrs; format: functional
[3] = system: HepG2; test: Hepatoprotective activity against H2O2-induced cell death in human HepG2 cells assessed as reduction in ALT level at 20 uM preincubated for 1 hr followed by H2O2-stimulation and measured after 24 hrs; format: functional
[4] = Hepatoprotective activity against D-Galactosamine-induced toxicity in rat WB-F344 cell assessed as cell damage at 10 uM by MTT colorimetric assay relative to control; format: functional
[5] = system: L02; test: Protection against D-GalN-induced toxicity in L02 cells […] assessed as reduction in cell growth relative to control; format: functional, Homo sapiens; design: scale not given: the % may be the effect or the level left
[6] = Hepatotoxicity in rat hepatocyte assessed as change in GSH level at 30 microg/mL relative to control; format: toxicity, cell-based; details: hepatocytes, at 30 µg/mL
[7] = system: Hepatocyte; test: Hepatoprotective activity against D-GaIN/TNFalpha induced cell death in mouse hepatocytes assessed as reduction in TNF alpha level; format: functional, cell-based
[8] = system: Hepatocyte; test: Hepatoprotective activity against D-GaIN induced liver injury in rat hepatocyte assessed as decrease in ALT level at 30 to 120 uM; format: functional; details: dose 30-120 µM
[9] = Hepatotoxicity in D-GaIN induced in Wistar rat model hepatocyte assessed as reduction in PLA2 level; format: toxicity, cell-based
[10] = system: Hepatocyte; test: Hepatoprotective activity against D-GaIN induced liver injury in rat hepatocyte assessed as decrease in LDH level at 30 to 120 uM; format: functional; details: dose 30-120 µM
[11] = species on record: Mus musculus; test: Hepatoprotective activity against D-GaIN/LPS induced liver injury mouse model assessed as increase in sALT relative to control; format: functional
[12] = species on record: Mus musculus; test: Hepatoprotective activity against D-GaIN/LPS induced liver injury mouse model assessed as increase in sAST relative to control; format: functional
[13] = system: Mus musculus; test: Hepatoprotective activity against D-GaIN/CCl4 induced liver injury mouse model assessed as reduction in GPT level at 30 microg/kg, iv relative to control; format: functional; design: scale not given: the % may be the effect or the level left; details: dose 30 µg/kg
[14] = system: Hepatocyte; test: Hepatoprotective activity against D-GaIN-induced toxicity in mouse hepatocyte relative to control; format: functional, cell-based
[15] = system: Hepatocyte; test: Hepatoprotective activity against D-GaIN/TNFalpha-induced cell death in mouse hepatocyte at 100 uM; format: functional, cell-based
[16] = system: Hepatocyte; test: Hepatoprotective activity against D-GaIN/TNFalpha -induced cell death in mouse hepatocyte assessed as inhibition of cell death; format: functional, cell-based; design: Activity: concentration or dose not given beside the values

In the case of `CC1(C)CC[C@@]2(C)[C@H](C1)C1=CC[C@@H]3[C@@]4(C)CC[C@@H](O)C(C)(C)[C@@H]4CC[C@@]3(C)[C@]1(C)C[C@@H]2O`, the Activity [1] is reported as 5.3%.

`CC(C)=CC[C@@H](O)[C@@H](C)[C@H]1CC[C@@]2(C)C3=CC[C@H]4C(C)(C)[C@@H](O)CC[C@]4(C)C3=CC[C@]12C` showed an Activity [2] of 32.36 U/L and an Activity [3] of 23.22 U/L.

For `CC(C)=CC[C@@H](O)[C@@H](C)[C@H]1CC[C@@]2(C)C3=C(C(=O)C[C@]12C)[C@@]1(C)CC[C@H](O)C(C)(C)[C@@H]1CC3`, the Activity [4] was 81.2%.

`CC(C)(O)[C@@H]1CC[C@@H]([C@H]2[C@H](O)C[C@]3(C)[C@@H]2CC[C@@H]2[C@@]4(C)CC[C@H](O[C@@H]5O[C@H](CO)[C@@H](O)[C@H](O)[C@H]5O[C@@H]5O[C@H](CO)[C@@H](O)[C@H](O)[C@H]5O)C(C)(C)[C@@H]4CC[C@]23C)O1` showed an Activity [5] of 69.5%.

For `C[C@H]1O[C@@H](O[C@H]2CC[C@@]3(C)[C@@H](CC[C@]4(C)[C@@H]3[C@H](O)C=C3[C@@H]5CC(C)(C)CC[C@]5(CO)[C@@H](O)C[C@]34C)[C@]2(C)CO)[C@H](O)[C@@H](O[C@@H]2O[C@H](CO)[C@@H](O)[C@H](O)[C@H]2O)[C@H]1O`, the Activity [6] was 46.5%.

With `C=C(C)[C@@H](O)CC[C@@H](CO)[C@H]1CC[C@@]2(C)[C@@H]3CC[C@H]4[C@](C)(C(=O)OC)[C@@H](O)C[C@H](O)[C@@]45C[C@@]35CC[C@]12C` [METHYL QUADRANGULARATE] the IC50 [7] was 337 µM.

With `CC(=O)O[C@@H]1C[C@](C)(C(=O)O)C[C@H]2C3=CC(=O)[C@@H]4[C@@]5(C)CC[C@H](O[C@@H]6O[C@H](C(=O)O)[C@@H](O)[C@H](O)[C@H]6O[C@@H]6O[C@H](C(=O)O)[C@@H](O)[C@H](O)[C@H]6O)C(C)(C)[C@@H]5CC[C@@]4(C)[C@]3(C)CC[C@@]12C` the Activity [8] was 16.5 U/L, the IC50 [9] was 27.1 µM and the Activity [10] was 242.8 U/L.

For `CC(C)C(O)(CO)CC[C@@H](C)[C@H]1CC[C@@]2(C)[C@@H]3CC[C@H]4[C@H](C(=O)O)[C@@H](O)C[C@H](O)[C@@]45C[C@@]35CC[C@]12C` (stereo partly specified), the IC50 [7] was 67.6 µM.

`C=C(C)[C@H](O)CC[C@@H](C)[C@H]1CC[C@@]2(C)[C@@H]3CC[C@H]4[C@](C)(C(=O)O)[C@@H](O)C[C@H](O)[C@@]45C[C@@]35CC[C@]12C` gave an IC50 [7] of 34.3 µM.

`C[C@]1(C(=O)O)CC[C@]2(C)CC[C@]3(C)C(=CC(=O)[C@@H]4[C@@]5(C)CC[C@H](O[C@@H]6O[C@H](C(=O)O)[C@@H](O)[C@H](O)[C@H]6O[C@@H]6O[C@H](C(=O)O)[C@@H](O)[C@H](O)[C@H]6O)[C@](C)(CO)[C@@H]5CC[C@]43C)[C@@H]2C1` showed an Activity [8] of 17.1 U/L, an IC50 [9] of 6.9 µM and an Activity [10] of 253.5 U/L.

`CC(C)=CCC[C@](C)(O)[C@H]1CC[C@]2(C)[C@@H]1[C@H](O)C[C@@H]1[C@@]3(C)CC[C@H](O)C(C)(C)[C@@H]3[C@@H](O[C@@H]3O[C@H](CO)[C@@H](O)[C@H](O)[C@H]3O)C[C@]12C` [GINSENOSIDE RH1] gave an Activity [11] of 93%, an Activity [12] of 90% and an Activity [13] of 72%.

Work on `C[C@@H]1CC[C@]2(C(=O)O)CC[C@]3(C)C(=CC[C@@H]4[C@@]5(C)C[C@@H](O)[C@H](O)C(C)(C)[C@@H]5CC[C@]43C)[C@@H]2[C@]1(C)O` [TOMENTIC ACID] yielded an IC50 [14] of 9.5 µM.

`CC1(C)[C@@H](O[C@@H]2O[C@H](C(=O)O)[C@@H](O)[C@H](O)[C@H]2O[C@@H]2O[C@H](C(=O)O)[C@@H](O)[C@H](O)[C@H]2O)CC[C@]2(C)[C@H]3C(=O)C=C4[C@@H]5C[C@](C)(C(=O)O)CC[C@]5(C)CC[C@@]4(C)[C@]3(C)CC[C@@H]12` showed an Activity [8] of 17.1 U/L, an IC50 [9] of 16.9 µM and an Activity [10] of 253.5 U/L.

For `C[C@H]1O[C@@H](O[C@H]2CC[C@@]3(C)[C@@H](CC[C@]4(C)[C@@H]3[C@H](O)C[C@@H]3C5=CC(C)(C)CC[C@]5(CO)[C@@H](O)C[C@]34C)[C@]2(C)CO)[C@H](O)[C@@H](O[C@@H]2O[C@H](CO)[C@@H](O)[C@H](O)[C@H]2O)[C@H]1O`, the Activity [6] was 64.7%.

In the case of `CC(C)=CCC[C@@H](C(=O)O)[C@H]1CC[C@@]2(C)C3=C(CC[C@]12C)[C@@]1(C)CC[C@H](O)C(C)(C)[C@@H]1CC3` [TRAMETENOLIC ACID], the Activity [4] is reported as 75%.

For `CC(C)=CCC[C@@H](C)[C@H]1CC[C@@]2(C)C3=C(CC[C@]12C)[C@@]1(C)CC[C@H](O)C(C)(C)[C@@H]1CC3` [LANOSTEROL], the Activity [4] was 74.8%.

`CC(C)[C@]1(CO)CC[C@@H]([C@H]2[C@H](O)C[C@]3(C)[C@@H]2CC[C@@H]2[C@@]4(C)CC[C@H](O[C@@H]5O[C@H](CO)[C@@H](O)[C@H](O)[C@H]5O[C@@H]5O[C@H](CO)[C@@H](O)[C@H](O)[C@H]5O)C(C)(C)[C@@H]4CC[C@]23C)O1` gave an Activity [5] of 22.2%.

`C[C@]1(C(=O)O)CC[C@]2(C)CC[C@]3(C)C(=CC(=O)[C@@H]4[C@@]5(C)CC[C@H](O[C@@H]6O[C@H](C(=O)O)[C@@H](O)[C@H](O)[C@H]6O[C@@H]6O[C@H](C(=O)O)[C@@H](O)[C@H](O)[C@H]6O)[C@](C)(CO)[C@@H]5CC[C@]43C)[C@H]2C1` gave an Activity [8] of 17.1 U/L, an IC50 [9] of 3.6 µM and an Activity [10] of 253.5 U/L.

`C=C(C)[C@@H]1C[C@H](O)C2=C(C(=O)C[C@]3(C)[C@@H]([C@H](C)CCC(=O)O)CC[C@@]23C)[C@@]1(C)CCC(=O)O` gave an Activity [2] of 19.09 U/L and an Activity [3] of 16.06 U/L.

In the case of `CC1=C2C3=CC[C@@H]4[C@@]5(C)C[C@@H](O)[C@H](O)[C@@](C)(CO)[C@@H]5CC[C@@]4(C)[C@]3(C)CC[C@@]2(C(=O)O[C@@H]2O[C@H](CO)[C@@H](O)[C@H](O)[C@H]2O)CC[C@H]1C`, the IC50 [15] is reported as 34.6 µM.

In the case of `COC(=O)[C@]1(C)[C@@H](O)C[C@H](O)[C@]23C[C@]24CC[C@]2(C)[C@@H]([C@H](C=O)C/C=C/C(C)(C)O)CC[C@@]2(C)[C@@H]4CC[C@@H]13`, the IC50 [7] is reported as 45.7 µM.

Work on `C[C@@H]1C(=O)O[C@H]2[C@@H]1O[C@]13O[C@@]4(CC[C@]5(C)C(=O)[C@](C)(O)[C@@]2(O)[C@H]15)C[C@]12OC(=O)C[C@H]1OC(C)(C)[C@@H]2C[C@@H]1O[C@@]14C3=O` yielded an Activity [16] of 37.6%.

For `CO[C@@H]1C=C2[C@@H]3CC(C)(C)CC[C@]3(CO)[C@@H](O)C[C@@]2(C)[C@]2(C)CC[C@H]3C(C)(C)[C@@H](O[C@@H]4O[C@H](C)[C@H](O)[C@H](O[C@@H]5O[C@H](CO)[C@@H](O)[C@H](O)[C@H]5O)[C@H]4O)CC[C@]3(C)[C@@H]12`, the Activity [6] was 75%.

`CC(C)=C(C)[C@H]1C[C@@H]([C@H]2CC[C@@]3(C)C4=C(CC[C@]23C)[C@@]2(C)CC[C@H](O)C(C)(C)[C@@H]2CC4)C(=O)O1` gave an Activity [4] of 71.9%.

For `CC1(C)[C@@H](O[C@H]2O[C@H](C(=O)O)[C@@H](O)[C@H](O)[C@H]2O[C@@H]2O[C@H](C(=O)O)[C@@H](O)[C@H](O)[C@H]2O)CC[C@]2(C)[C@H]3C(=O)C=C4[C@@H]5C[C@@](C)(C(=O)O)CC[C@]5(C)CC[C@@]4(C)[C@]3(C)CC[C@@H]12` [GLYCYRRHIZIN], the Activity [8] was 17.1 U/L, the IC50 [9] was 9.3 µM and the Activity [10] was 253.5 U/L.

With `C=C(C)C(=O)CC[C@@H](C=O)[C@H]1CC[C@@]2(C)[C@@H]3CC[C@H]4[C@](C)(C(=O)OC)[C@@H](O)C[C@H](O)[C@@]45C[C@@]35CC[C@]12C` the IC50 [7] was 89.3 µM.

For `C[C@@H]1C(=O)O[C@H]2[C@@H]1O[C@]13O[C@@]4(CC[C@]5(C)C(=O)[C@@](C)(O)[C@H]2[C@H]15)C[C@]12OC(=O)C[C@H]1OC(C)(C)[C@@H]2C[C@@H]1O[C@@]14C3=O`, the Activity [16] was 37.6%.

Work on `C[C@H]1C(=O)O[C@@H]2[C@H]1O[C@@]13O[C@]4(CC[C@@]5(C)C(=O)[C@@](C)(O)[C@]2(O)[C@@H]15)C[C@@]12OC(=O)C[C@@H]1OC(C)(C)[C@H]2C[C@@H](O)[C@@H]4C3=O` yielded an Activity [16] of 37.6%.

For `CC(C)=CCC[C@](C)(O[C@@H]1O[C@H](CO)[C@@H](O)[C@H](O)[C@H]1O)[C@H]1CC[C@]2(C)[C@@H]1[C@H](O)C[C@@H]1[C@@]3(C)CC[C@H](O)C(C)(C)[C@@H]3[C@@H](O[C@@H]3O[C@H](CO)[C@@H](O)[C@H](O)[C@H]3O)C[C@]12C` [GINSENOSIDE RG1], the Activity [11] was 30% and the Activity [12] was 12%.

In the case of `CC(C)=CC[C@H](O)[C@@H](C)[C@H]1CC[C@@]2(C)C3=C(CC[C@]12C)[C@@]1(C)CC[C@H](O)C(C)(C)[C@@H]1CC3`, the Activity [4] is reported as 56.3%.

With `C[C@H]1O[C@@H](O[C@H]2CC[C@@]3(C)[C@@H](CC[C@]4(C)[C@@H]3C(=O)C=C3[C@@H]5CC(C)(C)CC[C@]5(CO)[C@@H](O)C[C@]34C)[C@]2(C)CO)[C@H](O)[C@@H](O[C@@H]2O[C@H](CO)[C@@H](O)[C@H](O)[C@H]2O)[C@H]1O` the Activity [6] was 90.9%.
